Patent US10544143B2, “4-azaindole compounds” (BRISTOL-MYERS SQUIBB COMPANY, priority 2017, dated 2020)

Assays:
human TLR7 = human TLR7 (Homo sapiens (Human), UniProt Q9NYK1); assay: TLR7 inhibition reporter assay (HEK-Blue SEAP); type: cell-based; conditions: HEK-Blue human TLR7 cells, gardiquimod 7.5 μM
human TLR8 = human TLR8 (Homo sapiens (Human), UniProt Q9NR97); assay: TLR8 inhibition reporter assay (HEK-Blue SEAP); conditions: read-out: TLR8 IC50; HEK-Blue human TLR8 cells, R848 15.9 μM;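 further: SEAP driven by IFN-β minimal promoter carrying NF-κB and AP-1 sites, compounds dosed 0.05 nM to 50 µM for 22 h, inhibition scaled between agonist-plus-DMSO and reference-inhibitor wells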
human TLR9 = human TLR9 (Homo sapiens (Human), UniProt Q9NR96); assay: TLR9 inhibition reporter assay (HEK-Blue SEAP); conditions: read-out: TLR9 IC50; HEK-Blue human TLR9 cells, ODN2006 5 nM;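 further: SEAP driven by an IFN-β minimal promoter with NF-κB and AP-1 sites, read after 22 h, compounds dosed 0.05 nM–50 µM, inhibition scaled between agonist plus DMSO and reference-inhibitor wells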
Sequence of human TLR9 (Q9NR96 26-1032): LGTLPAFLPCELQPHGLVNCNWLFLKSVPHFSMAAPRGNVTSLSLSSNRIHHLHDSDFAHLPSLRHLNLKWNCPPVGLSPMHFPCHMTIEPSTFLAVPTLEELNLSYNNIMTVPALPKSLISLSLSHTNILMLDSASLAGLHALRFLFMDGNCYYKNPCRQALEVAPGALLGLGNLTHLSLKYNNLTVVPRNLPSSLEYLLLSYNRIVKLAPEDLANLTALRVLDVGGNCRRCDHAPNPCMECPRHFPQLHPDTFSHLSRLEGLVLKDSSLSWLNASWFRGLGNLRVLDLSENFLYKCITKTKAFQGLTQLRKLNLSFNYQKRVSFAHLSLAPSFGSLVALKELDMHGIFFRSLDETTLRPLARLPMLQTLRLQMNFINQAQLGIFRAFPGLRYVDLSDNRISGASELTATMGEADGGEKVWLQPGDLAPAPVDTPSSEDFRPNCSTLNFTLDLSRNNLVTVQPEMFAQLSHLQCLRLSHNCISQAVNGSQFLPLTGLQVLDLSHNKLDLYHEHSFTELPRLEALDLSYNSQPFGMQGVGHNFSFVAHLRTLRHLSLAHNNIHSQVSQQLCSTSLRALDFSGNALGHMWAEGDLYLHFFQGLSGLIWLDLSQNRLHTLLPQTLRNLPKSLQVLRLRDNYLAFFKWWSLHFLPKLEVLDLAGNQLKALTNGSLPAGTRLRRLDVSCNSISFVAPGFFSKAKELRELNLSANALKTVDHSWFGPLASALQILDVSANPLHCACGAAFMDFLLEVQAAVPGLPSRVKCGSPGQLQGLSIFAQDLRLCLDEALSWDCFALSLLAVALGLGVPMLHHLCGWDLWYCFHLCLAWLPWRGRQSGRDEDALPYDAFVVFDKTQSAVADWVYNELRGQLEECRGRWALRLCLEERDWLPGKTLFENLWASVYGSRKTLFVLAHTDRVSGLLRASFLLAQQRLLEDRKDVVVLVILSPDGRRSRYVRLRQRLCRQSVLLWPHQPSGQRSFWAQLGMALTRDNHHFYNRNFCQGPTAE

Sequence of human TLR8 (Q9NR97 27-1041): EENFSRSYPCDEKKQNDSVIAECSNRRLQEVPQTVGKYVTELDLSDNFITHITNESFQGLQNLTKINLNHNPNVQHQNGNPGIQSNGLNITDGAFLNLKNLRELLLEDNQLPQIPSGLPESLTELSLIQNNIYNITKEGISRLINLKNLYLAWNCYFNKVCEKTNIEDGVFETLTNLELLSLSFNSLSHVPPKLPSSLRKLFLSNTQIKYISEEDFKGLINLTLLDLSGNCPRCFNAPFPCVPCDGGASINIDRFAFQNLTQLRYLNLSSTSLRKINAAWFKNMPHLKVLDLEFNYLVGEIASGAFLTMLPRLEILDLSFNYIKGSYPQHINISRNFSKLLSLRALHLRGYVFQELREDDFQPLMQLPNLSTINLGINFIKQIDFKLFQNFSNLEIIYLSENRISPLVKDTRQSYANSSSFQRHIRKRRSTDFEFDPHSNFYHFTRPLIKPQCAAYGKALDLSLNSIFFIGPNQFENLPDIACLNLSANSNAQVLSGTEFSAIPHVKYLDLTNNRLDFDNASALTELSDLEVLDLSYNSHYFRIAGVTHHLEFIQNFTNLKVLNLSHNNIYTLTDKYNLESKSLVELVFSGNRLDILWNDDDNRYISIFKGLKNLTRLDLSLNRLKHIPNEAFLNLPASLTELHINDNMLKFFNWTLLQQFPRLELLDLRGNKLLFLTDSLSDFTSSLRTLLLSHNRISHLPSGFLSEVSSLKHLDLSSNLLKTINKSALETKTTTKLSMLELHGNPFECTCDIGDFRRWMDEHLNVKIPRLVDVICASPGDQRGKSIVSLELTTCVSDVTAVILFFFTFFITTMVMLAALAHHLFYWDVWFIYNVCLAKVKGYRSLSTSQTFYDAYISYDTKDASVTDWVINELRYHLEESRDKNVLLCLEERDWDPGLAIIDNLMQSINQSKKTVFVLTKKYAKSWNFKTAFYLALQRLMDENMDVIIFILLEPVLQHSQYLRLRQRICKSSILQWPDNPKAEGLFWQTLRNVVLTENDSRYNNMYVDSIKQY
Sequence of human TLR7 (Q9NYK1 27-1049): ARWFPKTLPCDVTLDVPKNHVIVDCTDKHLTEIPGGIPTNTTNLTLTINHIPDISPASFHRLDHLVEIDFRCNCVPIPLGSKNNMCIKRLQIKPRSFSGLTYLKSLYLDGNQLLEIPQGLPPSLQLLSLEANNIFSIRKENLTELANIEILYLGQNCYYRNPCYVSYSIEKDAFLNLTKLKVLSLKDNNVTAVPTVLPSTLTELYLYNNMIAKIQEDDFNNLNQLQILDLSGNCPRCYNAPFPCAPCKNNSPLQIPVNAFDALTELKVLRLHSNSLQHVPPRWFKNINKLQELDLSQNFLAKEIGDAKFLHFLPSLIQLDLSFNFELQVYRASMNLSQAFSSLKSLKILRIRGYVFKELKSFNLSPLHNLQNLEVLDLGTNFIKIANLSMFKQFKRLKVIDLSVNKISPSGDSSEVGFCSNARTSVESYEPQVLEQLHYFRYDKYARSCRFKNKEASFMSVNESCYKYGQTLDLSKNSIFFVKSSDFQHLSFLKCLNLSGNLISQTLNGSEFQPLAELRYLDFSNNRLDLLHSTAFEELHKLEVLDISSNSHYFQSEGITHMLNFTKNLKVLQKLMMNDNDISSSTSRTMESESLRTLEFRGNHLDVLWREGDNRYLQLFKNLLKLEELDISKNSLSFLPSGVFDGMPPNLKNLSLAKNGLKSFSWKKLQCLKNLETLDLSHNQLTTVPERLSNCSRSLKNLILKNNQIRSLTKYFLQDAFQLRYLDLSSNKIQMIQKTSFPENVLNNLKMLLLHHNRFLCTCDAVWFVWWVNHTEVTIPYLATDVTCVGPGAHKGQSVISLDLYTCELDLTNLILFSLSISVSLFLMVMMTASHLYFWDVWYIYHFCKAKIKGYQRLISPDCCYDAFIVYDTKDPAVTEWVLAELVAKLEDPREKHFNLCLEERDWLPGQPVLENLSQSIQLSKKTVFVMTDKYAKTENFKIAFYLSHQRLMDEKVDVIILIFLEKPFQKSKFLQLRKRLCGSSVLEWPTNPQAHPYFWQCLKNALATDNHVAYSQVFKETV

| IC50 (human TLR7) [nM] | IC50 (human TLR8) [nM] | IC50 (human TLR9) [nM] | Structure (SMILES) |
| --- | --- | --- | --- |
| 1.5 | 1.6 | 12600 | Cc1c(-c2[nH]c3ccc(N4CCN(C(=O)CNC(C)(C)C)CC4)nc3c2C(C)C)cn2ncnc2c1C [Example 877] |
| 0.48 | 2.2 | 9040 | Cc1c(-c2[nH]c3ccc(N4CCN(C(=O)CN(C)C(C)(C)C)CC4)nc3c2C(C)C)cn2ncnc2c1C [Example 878] |
| 1 | 3.4 | 7550 | CCN(CC(=O)N1CCN(c2ccc3[nH]c(-c4cn5ncnc5c(C)c4C)c(C(C)C)c3n2)CC1)C(C)C [Example 879] |
| 6.4 | 30 | 19300 | Cc1c(-c2[nH]c3ccc(N4CCN(C(=O)CN(CC(C)C)C(C)C)CC4)nc3c2C(C)C)cn2ncnc2c1C [Example 880] |
| 25 | 68 | 43500 | Cc1c(-c2[nH]c3ccc(N4CCN(C(=O)CN(CC(C)C)CC(C)C)CC4)nc3c2C(C)C)cn2ncnc2c1C [Example 881] |
| 3.3 | 11 | 7760 | CCCCN(CC(=O)N1CCN(c2ccc3[nH]c(-c4cn5ncnc5c(C)c4C)c(C(C)C)c3n2)CC1)C(C)C [Example 882] |
| 7.4 | 2.3 | 12500 | Cc1c(-c2[nH]c3ccc(N4CCN(C(=O)CN(C(C)C)C(C)C)CC4)nc3c2C(C)C)cn2ncnc2c1C [Example 883] |
| 0.9 | 0.17 | 6500 | Cc1c(-c2[nH]c3ccc(N4C[C@@H](C)N[C@H](C)C4)nc3c2C(C)C)cn2ncnc2c1C [Example 884] |
| 1.6 | 3.8 | 7850 | Cc1c(-c2[nH]c3ccc(N4C[C@@H](C)N(C(=O)CN(C)C)[C@H](C)C4)nc3c2C(C)C)cn2ncnc2c1C [Example 885] |
| 2.8 | 1.7 | 2570 | Cc1c(-c2[nH]c3ccc(N4C[C@@H](C)N(C(=O)CCN(C)C)[C@H](C)C4)nc3c2C(C)C)cn2ncnc2c1C [Example 886] |
| 0.5 | 0.68 | 8120 | Cc1c(-c2[nH]c3ccc(N4CCN(C(=O)CN(C)C)[C@@H](C)C4)nc3c2C(C)C)cn2ncnc2c1C [Example 887] |
| 0.62 | 1.4 | 3280 | Cc1c(-c2[nH]c3ccc(N4C[C@@H](C)N(C(=O)CCN5CCC5)C[C@@H]4C)nc3c2C(C)C)cn2ncnc2c1C [Example 892] |
| 0.34 | 0.74 | 7440 | CCN(C)CC(=O)N1C[C@H](C)N(c2ccc3[nH]c(-c4cn5ncnc5c(C)c4C)c(C(C)C)c3n2)C[C@H]1C [Example 893] |
| 0.37 | 0.89 | 10800 | CCCN(C)CC(=O)N1C[C@H](C)N(c2ccc3[nH]c(-c4cn5ncnc5c(C)c4C)c(C(C)C)c3n2)C[C@H]1C [Example 894] |
| 0.74 | 1.1 | 7930 | CCN(CC)CC(=O)N1C[C@H](C)N(c2ccc3[nH]c(-c4cn5ncnc5c(C)c4C)c(C(C)C)c3n2)C[C@H]1C [Example 895] |
| 0.69 | 0.37 | 8440 | Cc1c(-c2[nH]c3ccc(N4C[C@@H](C)N(C(=O)CN5CC6(COC6)C5)C[C@@H]4C)nc3c2C(C)C)cn2ncnc2c1C [Example 896] |
| 0.86 | 1.5 | 12000 | CCN(C)CC(=O)N1CCN(c2ccc3[nH]c(-c4cn5ncnc5c(C)c4C)c(C(C)C)c3n2)C[C@@H]1C [Example 897] |
| 2.1 | 3.2 | 17300 | CCN(CC)CC(=O)N1CCN(c2ccc3[nH]c(-c4cn5ncnc5c(C)c4C)c(C(C)C)c3n2)C[C@@H]1C [Example 898] |
| 1 | 1.7 | 9780 | Cc1c(-c2[nH]c3ccc(N4CCN(C(=O)CN5CCCC5)[C@@H](C)C4)nc3c2C(C)C)cn2ncnc2c1C [Example 899] |
| 1.1 | 1.4 | 15600 | Cc1c(-c2[nH]c3ccc(N4CCN(C(=O)CN5CC6(COC6)C5)[C@@H](C)C4)nc3c2C(C)C)cn2ncnc2c1C [Example 900] |

| IC50 (human TLR7) [nM] | IC50 (human TLR8) [nM] | IC50 (human TLR9) [nM] | Structure (SMILES) |
| --- | --- | --- | --- |
| 0.72 | 0.15 | 13300 | Cc1c(-c2[nH]c3ccc(N4CCN(C(=O)CN5CC6(COC6)C5)C[C@@H]4C)nc3c2C(C)C)cn2ncnc2c1C [Example 901] |
| 1.1 | 1.4 | 15800 | CCN(CC)CC(=O)N1CCN(c2ccc3[nH]c(-c4cn5ncnc5c(C)c4C)c(C(C)C)c3n2)[C@@H](C)C1 [Example 902] |
| 3 | 4.1 | 35200 | Cc1c(-c2[nH]c3ccc(N4CCN(C(=O)CN(C(C)C)C(C)C)C[C@@H]4C)nc3c2C(C)C)cn2ncnc2c1C [Example 903] |
| 1 | 4.2 | 14800 | Cc1c(-c2[nH]c3ccc(N4CCN(C(=O)CN(C)C(C)(C)C)[C@@H](C)C4)nc3c2C(C)C)cn2ncnc2c1C [Example 904] |
| 0.51 | 0.82 | 12000 | Cc1c(-c2[nH]c3ccc(N4CCN(C(=O)CN(C)C(C)(C)C)C[C@@H]4C)nc3c2C(C)C)cn2ncnc2c1C [Example 905] |
| 0.39 | 0.67 | 7800 | CCN(C)CCC(=O)N1C[C@H](C)N(c2ccc3[nH]c(-c4cn5ncnc5c(C)c4C)c(C(C)C)c3n2)C[C@H]1C [Example 906] |
| 0.76 | 0.45 | > 50000 | Cc1c(-c2[nH]c3ccc(N4C[C@@H](C)N(C(=O)CCN5CCOCC5)C[C@@H]4C)nc3c2C(C)C)cn2ncnc2c1C [Example 907] |
| 0.89 | 0.26 | 6460 | Cc1c(-c2[nH]c3ccc(N4C[C@@H](C)N(C(=O)CCN5CC6(COC6)C5)C[C@@H]4C)nc3c2C(C)C)cn2ncnc2c1C [Example 908] |
| 0.54 | 0.91 | 6710 | Cc1c(-c2[nH]c3ccc(N4C[C@@H](C)N(C(=O)CCN5CCC(F)C5)C[C@@H]4C)nc3c2C(C)C)cn2ncnc2c1C (stereo partly drawn) [Example 909] |
| 0.68 | 0.86 | 5400 | Cc1c(-c2[nH]c3ccc(N4C[C@@H](C)N(C(=O)CN(C(C)C)C(C)C)C[C@@H]4C)nc3c2C(C)C)cn2ncnc2c1C [Example 910] |
| 0.68 | 1.5 | 7020 | Cc1c(-c2[nH]c3ccc(N4C[C@@H](C)N(C(=O)CN(C)C(C)(C)C)C[C@@H]4C)nc3c2C(C)C)cn2ncnc2c1C [Example 911] |
| 0.98 | 2.2 | 9330 | CCN(CC(=O)N1C[C@H](C)N(c2ccc3[nH]c(-c4cn5ncnc5c(C)c4C)c(C(C)C)c3n2)C[C@H]1C)C(C)C [Example 912] |
| 0.73 | 0.94 | 6050 | Cc1c(-c2[nH]c3ccc(N4C[C@@H](C)N(C(=O)CCN(C)C(C)(C)C)C[C@@H]4C)nc3c2C(C)C)cn2ncnc2c1C [Example 914] |
| 2.3 | 1 | 11100 | Cc1c(-c2[nH]c3ccc(N4CCN(C(=O)CN5CC(C)(C)C5)CC4)nc3c2C(C)C)cn2ncnc2c1C [Example 915] |
| […] | 11 | 14500 | COC1CN(CC(=O)N2CCN(c3ccc4[nH]c(-c5cn6ncnc6c(C)c5C)c(C(C)C)c4n3)CC2)C1 [Example 916] |
| 23 | 1 | 13900 | Cc1c(-c2[nH]c3ccc(N4CCN(C(=O)CN5CCC(F)(F)C5)CC4)nc3c2C(C)C)cn2ncnc2c1C [Example 919] |
| 3.3 | 3 | 3040 | Cc1c(-c2[nH]c3ccc(N4C[C@@H](C)N(C(=O)CN(C)C(C)(C)C)[C@H](C)C4)nc3c2C(C)C)cn2ncnc2c1C [Example 926] |
| 2.9 | 3.7 | 4360 | CCN(C)CC(=O)N1[C@H](C)CN(c2ccc3[nH]c(-c4cn5ncnc5c(C)c4C)c(C(C)C)c3n2)C[C@H]1C [Example 927] |
| 1.5 | 6.9 | 3640 | Cc1c(-c2[nH]c3ccc(N4C[C@@H](C)N(C(=O)CN5CCCC5)[C@H](C)C4)nc3c2C(C)C)cn2ncnc2c1C [Example 928] |
| 2.6 | 3.9 | 5090 | Cc1c(-c2[nH]c3ccc(N4C[C@@H](C)N(C(=O)CN5CC6(COC6)C5)[C@H](C)C4)nc3c2C(C)C)cn2ncnc2c1C [Example 929] |

| Structure (SMILES) | IC50 (human TLR7) [nM] | IC50 (human TLR8) [nM] | IC50 (human TLR9) [nM] |
| --- | --- | --- | --- |
| Cc1c(-c2[nH]c3ccc(N4[C@@H]5CC[C@H]4CN(C(=O)CCN(C)C)C5)nc3c2C(C)C)cn2ncnc2c1C [Example 913] | 1 | 1.8 | 8840 |
| Cc1c(-c2[nH]c3ccc(N4[C@@H]5CC[C@H]4CN(C(=O)CN4CC6(COC6)C4)C5)nc3c2C(C)C)cn2ncnc2c1C [Example 920] | 2.6 | 5.9 | 12100 |
| Cc1c(-c2[nH]c3ccc(N4[C@@H]5CC[C@H]4CN(C(=O)CN4CCCC4)C5)nc3c2C(C)C)cn2ncnc2c1C [Example 921] | 0.61 | 3.4 | 5270 |
| CCN(C)CC(=O)N1C[C@H]2CC[C@@H](C1)N2c1ccc2[nH]c(-c3cn4ncnc4c(C)c3C)c(C(C)C)c2n1 [Example 922] | 0.55 | 2.1 | 9370 |
| Cc1c(-c2[nH]c3ccc(N4[C@@H]5CC[C@H]4CN(C(=O)CN(C)C(C)C)C5)nc3c2C(C)C)cn2ncnc2c1C [Example 923] | 1.2 | 3.6 | 6560 |
| Cc1c(-c2[nH]c3ccc(N4[C@@H]5CC[C@H]4CN(C(=O)CN(C)C(C)(C)C)C5)nc3c2C(C)C)cn2ncnc2c1C [Example 924] | 1.7 | 4.9 | 7230 |
| Cc1c(-c2[nH]c3ccc(N4[C@@H]5CC[C@H]4CN(C(=O)CN(CCO)C(C)(C)C)C5)nc3c2C(C)C)cn2ncnc2c1C [Example 925] | 0.79 | 9.2 | 10100 |
